Consider one molecule from patent publication US6991685B2, “Low temperature cleaning” (Ecolab Inc., priority 2003, dated 2006).

The structures appear in SMILES notation. Where two headings read alike, the source gives them in different places.

The subject of assay [1] is yeast-mold isolate (1/3 black fungal isolate, 1/3 gray fungal isolate, 1/3 Yarrowia lipolytica). The format is cell-based, yeast-mold isolate from a beverage plant.
The subject of assay [2] is yeast-mold isolate. Kind of assay: Coupon testing for bio-load removal study (five step sanitation program). The format is cell-based, yeast-mold isolate from a beverage plant. To be noted: silicon rubber coupon pre-treated with the labelled agent, inoculated, then five step sanitation program (2600 ppm Vortexx, 40° C., 15 minutes).
Procedure: The same yeast-mold isolates as in the antimicrobial treatment method were grown up for inoculation onto the coupons. The coupons were inoculated with the isolates. The coupons were then subjected to the inventive five step method involving an initial rinse step, a detergent wash step, an intermediate rinse step, an antimicrobial treatment step, and a final rinse step. The coupons were first placed in 1000 ml of ambient water for 10 minutes. The coupons were then placed in 1000 ml of a wash solution for 60 minutes. The coupons were then placed in a 2600 ppm solution Vortexx™ at 40° C. for 15 minutes. Finally, the coupons were placed in a jar containing sterile water. The carriers were than placed in 25 ml of 0.5% sodium thiosulfate neutralizing solution to suspend any surviving organisms. The neutralizing solution was then filtered and plated on Sabouraud's Dextrose Agar in order to determine the number of surviving organisms.
Where [3] appears, read: 185 F. water, 15 minute contact, Stainless Steel coupon, no pre-treatment.

`O` [185 F. Water, water]: the “Percent Reduction” value was greater than 99.5% in assay [1] (185 F. water, 15-minute contact, BUNA N coupon, pH 2.3 phosphoric acid 104 F. 2 weeks); greater than 99.8% in assay [1] (185 F. water, 15-minute contact, BUNA N coupon, pH 13 caustic 185 F. 2 weeks); greater than 99.9% in assay [1] (setting [3]). The “Filter Survivors” value in assay [1] (setting [3]) is on record as less than 1 CFU. The log reduction is 3 log in assay [1] (stainless steel coupon, not preconditioned, Table 2 treatments); less than 1 log in assay [2] (listed as 185° F. Water); 1 log in assay [2] (listed as 185° F. water). The “Percent Reduction (avg of 3)” value in assay [2] worked out at 38.3%.
